Measured values published in the supplement of paper PMC10657565.
± gives the uncertainty stated by the source.

What was measured:
BT-474 = test: relative cell viability vs DMSO control (% of DMSO control); higher = less growth inhibition (higher viability); details: treatment time: 72 h
Protocol: (§1)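 Breast cancer cell lines (BT-474, HCC1806, SUM-159, SKBR-3) were seeded in triplicate in 96-well plates and treated 24 h after seeding with kinase inhibitors at 8 doses (3 nM to 30 uM). After 72 h, viability was read by CellTiter-Glo luminescence. Values were averaged over replicates and normalised to DMSO-only (0.1%) controls on each plate to give relative viability (% of DMSO).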

HCC1806 = test: as above; details: treatment time: 72 h
Protocol: as §1

| Structure (SMILES) | relative cell viability (BT-474; 0.003 µM) | relative cell viability (BT-474; 0.01 µM) | relative cell viability (BT-474; 0.03 µM) | relative cell viability (BT-474; 0.1 µM) | relative cell viability (BT-474; 0.3 µM) | relative cell viability (BT-474; 1 µM) | relative cell viability (BT-474; 3 µM) | relative cell viability (BT-474; 30 µM) | relative cell viability (HCC1806; 0.003 µM) | relative cell viability (HCC1806; 0.01 µM) | relative cell viability (HCC1806; 0.03 µM) | relative cell viability (HCC1806; 0.1 µM) | relative cell viability (HCC1806; 0.3 µM) | relative cell viability (HCC1806; 1 µM) | relative cell viability (HCC1806; 3 µM) | relative cell viability (HCC1806; 30 µM) |
| --- | --- | --- | --- | --- | --- | --- | --- | --- | --- | --- | --- | --- | --- | --- | --- | --- |
| CNS(=O)(=O)Nc1nccc(Cc2c(C)c3ccc(Oc4ncccn4)cc3oc2=O)c1F | 98.4 ± 1.4 | 94.3 ± 1.5 | 97.2 ± 2.2 | 94.9 ± 5.3 | 92.8 ± 2.1 | 87.6 ± 5.1 | 87.6 ± 1.8 | 41.6 ± 2.2 | 90 ± 7.3 | 86.2 ± 1.2 | 78.5 ± 0.86 | 77.8 ± 2.5 | 74.9 ± 3.6 | 75.1 ± 5.3 | 73.7 ± 3.6 | 72.8 ± 4.9 |
| Cc1nc(Nc2n[nH]c3c2CN(C(=O)N[C@H](CN(C)C)c2ccccc2)C3(C)C)c2sccc2n1 | 96.3 ± 2.5 | 92.7 ± 4.8 | 89.7 ± 3.5 | 86.5 ± 2.5 | 82.6 ± 5.6 | 70 ± 6.6 | 44 ± 2.3 | 21.3 ± 0.7 | 66.9 ± 11 | 46.3 ± 6 | 36.2 ± 1.9 | 32.5 ± 1.8 | 29.6 ± 1.5 | 19.4 ± 1.2 | 4.75 ± 0.17 | 2.8 ± 0.096 |
| Cn1nccc1Nc1nccc(-c2ccn([C@H](CO)c3ccc(Cl)c(F)c3)c(=O)c2)n1 [GDC-0994] | 102 ± 6.2 | 101 ± 6.1 | 97.6 ± 7.6 | 94.3 ± 3.5 | 95.3 ± 5 | 97.8 ± 9.2 | 101 ± 11 | 88.4 ± 6.7 | 97.15 ± 0.91 | 94.8 ± 2.7 | 92 ± 4.1 | 88.3 ± 6.2 | 81.5 ± 3.2 | 81.6 ± 4 | 84.9 ± 3.7 | 73.5 ± 2.6 |
| C[C@]12O[C@H](C[C@]1(O)CO)n1c3ccccc3c3c4c(c5c6ccccc6n2c5c31)CNC4=O [Lestaurtinib] | 87.8 ± 1.5 | 77.2 ± 3.4 | 73.6 ± 4.1 | 66.8 ± 7.2 | 59.5 ± 2.3 | 49.5 ± 2.6 | 37.9 ± 0.67 | 1.31 ± 0.099 | 83.42 ± 0.79 | 63.1 ± 3 | 43.6 ± 5.3 | 16 ± 0.76 | 7.81 ± 0.93 | 3.73 ± 0.28 | 2.9 ± 0.12 | 0.918 ± 0.075 |
| C[C@@H](NC(=O)c1ncnc(N)c1Cl)c1ncc(C(=O)Nc2cc(C(F)(F)F)c(Cl)cn2)s1 [MLN-2480] | 93.9 ± 2.1 | 98.5 ± 6 | 97.3 ± 2.4 | 95.8 ± 4.7 | 88.1 ± 6.3 | 77.5 ± 3.7 | 86.6 ± 9.7 | 69.5 ± 7 | 102 ± 1.9 | 102 ± 1.8 | 103 ± 1.8 | 102 ± 2.5 | 103 ± 2.3 | 100 ± 5 | 101.2 ± 0.76 | 68 ± 4.8 |
| Cc1ccc(-n2nc(C(C)(C)C)cc2NC(=O)NCc2cc(F)ccc2Oc2ccc3c(cnn3CCO)c2)cc1 [Pexmetinib] | 116 ± 3.7 | 118 ± 3 | 119 ± 1.9 | 118 ± 4.1 | 116 ± 6.1 | 110 ± 5 | 105 ± 3.3 | 28 ± 0.44 | 98.7 ± 2.1 | 100 ± 3.3 | 102 ± 4.9 | 105 ± 5.4 | 106 ± 4.4 | 102 ± 3.3 | 88.3 ± 4.1 | 12.7 ± 1.3 |
